{"source": "paper PMC11480361", "about": "“Design of a Cereblon construct for crystallographic and biophysical studies of protein degraders” (Nature Communications, 2024)", "key": {"[1]": {"biological_target": "T1, CRBN^midi (Homo sapiens, UniProt Q96SW2, C287N/C343E/C78I/DEL188-248/G302D/I92V/INS187GSG/K116N/L342R/L423I/Q134E/R283W/T359I/V293S)", "T1 construct": "amino acids 41-187 followed by a Gly-Ser-Gly linker and amino acids 249-426; His6 (N, cleaved yes); made in house; host or cells: E. coli BL21(DE3)", "T1 sequence (Q96SW2 with tags, fused parts or gaps with the stated changes limits assumed)": "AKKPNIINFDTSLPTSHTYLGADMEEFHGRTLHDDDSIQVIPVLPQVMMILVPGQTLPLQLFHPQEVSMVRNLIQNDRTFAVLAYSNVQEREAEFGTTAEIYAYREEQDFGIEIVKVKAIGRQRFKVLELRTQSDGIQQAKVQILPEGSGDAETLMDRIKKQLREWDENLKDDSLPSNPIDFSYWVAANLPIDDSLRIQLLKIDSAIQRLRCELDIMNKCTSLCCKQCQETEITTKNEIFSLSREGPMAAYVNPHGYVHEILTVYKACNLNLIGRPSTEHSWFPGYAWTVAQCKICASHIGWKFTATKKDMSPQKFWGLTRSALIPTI", "test": "SPR, CRBN^midi on chip, binary", "format": "binding", "experimental": "All SPR measurements were carried out on a Biacore^TM 8 K (Cytiva, Biacore Insight Control Software version 5.0.18.22405). CRBN^midi was immobilized via a His6 tag on a NiHC 1500 M chip (XanTec) at 25 °C. The chip surface was prepared for ligand (CRBN^midi) capture as per manufacturer’s instructions, flowing 350 mM EDTA, followed by buffer, then loaded using 5 mM NiCl2 followed by buffer. For binary measurements CRBN^midi was diluted to 350 nM and flowed at 10 µL/min. for 420 s to capture a final bound response of 240 RUs. For […] measurements, 10 nM of CRBN^midi was flowed at 10 µl/min. for 420 s to capture a final bound response of approximately 10,000 RUs. The buffer for immobilization and all kinetic measurements was 50 mM Tris pH 8.0, 150 mM NaCl, 0.25 mM TCEP, 0.005% (v/v) Tween-20 and 2% (v/v) DMSO.\n(§1) For ternary experiments the analyte was supplemented with 50 µM BRD4^BD2. Each concentration point was flowed independently at 50 µL/min. with an association time of 150 s followed by 500 s dissociation. All measurements were carried out at 20 °C.\n(§2) Data was analyzed using Biacore^TM Insight Evaluation Software (version 4.0.8.20368). Raw sensograms were solvent corrected, followed by reference and blank subtraction. […] Alpha, a parameter indicative of cooperativity, was calculated by dividing binary KD by ternary KD."}, "[2]": {"biological_target": "T2, CRBN^midi and BRD4^BD2 (Homo sapiens, UniProt O60885+Q96SW2, C287N/C343E/C78I/DEL188-248/G302D/I92V/INS187GSG/K116N/L342R/L423I/Q134E/R283W/T359I/V293S)", "T2 construct": "amino acids 41-187 followed by a Gly-Ser-Gly linker and amino acids 249-426; Human Brd4^BD2 (residues 333–460, UniProt ID: O60885); His6 (N); made in house; host or cells: E. coli BL21(DE3)", "T2 sequence (Q96SW2 with tags, fused parts or gaps with the stated changes limits assumed, other chains not shown)": "as the sequence (Q96SW2 with tags, fused parts or gaps with the stated changes limits assumed) above", "test": "TR-FRET ternary complex formation with BRD4^BD2", "format": "binding", "conditions": "for TR-FRET signal: CRBNmidi, source data Fig. 3h, replicates", "experimental": "(§3) The mixture was incubated in the dark with gentle rocking for 1 hour before readout using a PHERAstar microplate reader (BMG Labtech) with Pherastar software (version 5.70 R5). All incubations were conducted at 20 °C. Data were fitted by non-linear regression (curve fit) using Prism software (GraphPad version 10). Experiments were conducted in triplicate and were the average of three repeats."}, "[3]": {"tested_on": "T3, CRBN^ΔN:DDB1^ΔBPB and BRD4^BD2", "T3 construct": "a construct lacking the unstructured N-terminal region of CRBN (CRBN^ΔN:DDB1); Human Brd4^BD2 (residues 333–460, UniProt ID: O60885); His6 (N); purchased Selvita", "test": "TR-FRET ternary complex formation with BRD4^BD2", "format": "binding, human", "conditions": "for TR-FRET signal: CRBNΔN-DDB1ΔBPB, source data Fig. 3h, replicates", "experimental": "as §3"}, "[4]": {"tested_on": "T4, CRBN^TBD and BRD4^BD2", "T4 construct": "Human Brd4^BD2 (residues 333–460, UniProt ID: O60885); GST (cleaved yes); His6; His6 (N); made in house; host or cells: E. coli BL21(DE3)", "test": "TR-FRET ternary complex formation with BRD4^BD2", "format": "binding, human", "conditions": "for TR-FRET signal: CRBNTBD, source data Fig. 3h, replicates", "experimental": "as §3"}, "[5]": {"biological_target": "T2, CRBN^midi and BRD4^BD2", "test": "SPR, CRBN^midi on chip, ternary (analyte with 50 µM BRD4^BD2)", "format": "binding", "experimental": "All SPR measurements were carried out on a Biacore^TM 8 K (Cytiva, Biacore Insight Control Software version 5.0.18.22405). […] The buffer for immobilization and all kinetic measurements was 50 mM Tris pH 8.0, 150 mM NaCl, 0.25 mM TCEP, 0.005% (v/v) Tween-20 and 2% (v/v) DMSO.\nas §1, §2"}, "[6]": {"conditions": "CRBN^midi immobilization level 9581"}, "[7]": {"conditions": "CRBN^midi immobilization level 240"}}, "note": "pKd: −log10 of the molar value. Where “and” joins values, the source holds several entries; their conditions need not be identical. Equal entries are not always repeated."}
{"smiles": "Cc1nnc2n1-c1ccc(-c3cnn(CCCCCCCN4CCC(c5cccc6c5CN(C5CCC(=O)NC5=O)C6=O)CC4)c3)cc1C(c1ccc(Cl)cc1)=NC21CC1", "note": "(centres unmarked) [CFT-1297]", "values": [{"measurement": "Experimental Rmax / Theoretical Rmax", "setting": "[1]", "result": 93, "unit": "%"}, {"measurement": "pKd", "setting": "[1]", "result": 5.68}, {"measurement": "Experimental Rmax", "setting": "[1]; [6]", "result": 196}, {"measurement": "Theoretical Rmax", "setting": "[1]; [6]", "result": 211}, {"measurement": "maximal concentration of bell-shaped TR-FRET profile", "setting": "[2]; CRBN^midi, BRD4^BD2", "result": 21, "unit": "nM"}, {"measurement": "TR-FRET signal", "setting": "[2]; CFT-1297 6.3657e-10 M", "result": "120 and 116 and 105 and 148 and 130 and 152 and 174 and 158 and 167"}, {"measurement": "TR-FRET signal", "setting": "[2]; CFT-1297 2.01156e-9 M", "result": "347 and 363 (2×) and 394 and 412 and 387 and 420 (2×) and 430"}, {"measurement": "TR-FRET signal", "setting": "[2]; CFT-1297 6.35653e-9 M", "result": "931 and 924 and 913 and 954 and 948 and 945 and 981 and 982 and 990"}, {"measurement": "TR-FRET signal", "setting": "[2]; CFT-1297 2.00866e-8 M", "result": "1502 and 1521 and 1538 and 1551 and 1571 and 1561 and 1573 and 1559 and 1582"}, {"measurement": "TR-FRET signal", "setting": "[2]; CFT-1297 6.34738e-8 M", "result": "850 and 872 and 886 and 873 and 864 and 854 and 799 and 811 and 813"}, {"measurement": "TR-FRET signal", "setting": "[2]; CFT-1297 2.00577e-7 M", "result": "376 and 352 and 403 and 396 and 394 (2×) and 313 and 326 and 341"}, {"measurement": "TR-FRET signal", "setting": "[2]; CFT-1297 6.33824e-7 M", "result": "185 and 204 and 173 and 213 and 220 and 205 and 126 and 137 and 130"}, {"measurement": "TR-FRET signal", "setting": "[2]; CFT-1297 2.00288e-6 M", "result": "130 and 122 and 145 and 152 and 153 and 147 and 79 and 88 and 84"}, {"measurement": "TR-FRET signal", "setting": "[2]; CFT-1297 6.32911e-6 M", "result": "113 and 129 and 102 and 140 and 135 and 145 and 75 and 68 and 78"}, {"measurement": "maximal concentration of bell-shaped TR-FRET profile", "setting": "[3]; CRBN^ΔN:DDB1^ΔBPB, BRD4^BD2", "result": 17, "unit": "nM"}, {"measurement": "TR-FRET signal", "setting": "[3]; CFT-1297 6.3657e-10 M", "result": "5 and -3 and 2 and 6 and 3 and 13 and 20"}, {"measurement": "TR-FRET signal", "setting": "[3]; CFT-1297 2.01156e-9 M", "result": "73 and 94 and 64 and 70 and 78 and 68 and 83 and 85 and 77"}, {"measurement": "TR-FRET signal", "setting": "[3]; CFT-1297 6.35653e-9 M", "result": "339 and 359 and 325 and 342 and 338 and 345 and 352 and 373 and 376"}, {"measurement": "TR-FRET signal", "setting": "[3]; CFT-1297 2.00866e-8 M", "result": "756 and 794 and 735 and 761 and 799 and 801 and 763 and 726 and 762"}, {"measurement": "TR-FRET signal", "setting": "[3]; CFT-1297 6.34738e-8 M", "result": "382 (2×) and 392 and 395 and 387 and 370 and 383 and 372 and 363"}, {"measurement": "TR-FRET signal", "setting": "[3]; CFT-1297 2.00577e-7 M", "result": "131 and 143 and 127 and 140 and 124 and 132 and 129 and 147 and 119"}, {"measurement": "TR-FRET signal", "setting": "[3]; CFT-1297 6.33824e-7 M", "result": "50 and 51 and 69 and 66 and 56 and 71 and 52 and 54 and 38"}, {"measurement": "TR-FRET signal", "setting": "[3]; CFT-1297 2.00288e-6 M", "result": "14 and 4 and 16 and 27 and 34 and 33 and -10 and -1 and -13"}, {"measurement": "TR-FRET signal", "setting": "[3]; CFT-1297 6.32911e-6 M", "result": "11 and 4 and 8 and 21 and 25 and 18 and 13 and 9 and 23"}, {"measurement": "TR-FRET signal", "setting": "[4]; CFT-1297 6.3657e-10 M", "result": "-100 and -96 and -91 and -28 and -32 and -31 and -4 and -7 and 0"}, {"measurement": "TR-FRET signal", "setting": "[4]; CFT-1297 2.01156e-9 M", "result": "20 and 18 and 19 and 27 (2×) and 31 and 16 and 0 and 9"}, {"measurement": "TR-FRET signal", "setting": "[4]; CFT-1297 6.35653e-9 M", "result": "17 and 14 and 10 and 42 and 47 and 37 and 20 and 23 and 11"}, {"measurement": "TR-FRET signal", "setting": "[4]; CFT-1297 2.00866e-8 M", "result": "45 and 44 and 40 and 53 and 52 (2×) and 41 and 50"}, {"measurement": "TR-FRET signal", "setting": "[4]; CFT-1297 6.34738e-8 M", "result": "117 and 115 and 122 and 101 and 103 and 107 and 98 and 97 and 102"}, {"measurement": "TR-FRET signal", "setting": "[4]; CFT-1297 2.00577e-7 M", "result": "132 and 129 and 128 and 106 and 105 and 108 and 111 and 110"}, {"measurement": "TR-FRET signal", "setting": "[4]; CFT-1297 6.33824e-7 M", "result": "109 and 104 and 106 and 98 and 78 and 100"}, {"measurement": "TR-FRET signal", "setting": "[4]; CFT-1297 2.00288e-6 M", "result": "112 and 117 and 108 and 92 and 89 and 102 and 91 and 95 and 90"}, {"measurement": "TR-FRET signal", "setting": "[4]; CFT-1297 6.32911e-6 M", "result": "131 (2×) and 129 and 112 and 107 and 117 and 110 and 105"}, {"measurement": "ternary complex formation by TR-FRET", "setting": "[4]; CRBN^TBD, BRD4^BD2", "result": "no significant ternary complex formation was detected"}, {"measurement": "Experimental Rmax / Theoretical Rmax", "setting": "[5]", "result": 55, "unit": "%"}, {"measurement": "cooperativity α (binary KD / ternary KD)", "setting": "[5]", "result": 3}, {"measurement": "Experimental Rmax", "setting": "[5]; [7]", "result": 56}, {"measurement": "Theoretical Rmax", "setting": "[5]; [7]", "result": 101}]}
